Measured values as given in JPH09183729A, “凍結乾燥ウラシルを含有する抗腫瘍医薬組成物” (priority 1995, dated 1997).
In brackets after ≈: the same amount, converted by molar mass.

Columns and labels:
physchem = settings: water, saturated solution concentration in water
[1] = cited from earlier work
[2] = FT compared with 5-FU; UFT compared with 5-FU, FT and other antitumour drugs; cited from earlier work

Row | solubility (physchem) [mg/mL] | Compound | solubility in water ([1]; 25℃ water, Merck Index) [g/100g] | solubility in alcohol and ether ([1]; alcohol and ether) | solubility in cold water ([1]; cold water) | toxicity / side effects [2]
1 | ~14.7 (≈ 131 mM) | O=c1cc[nH]c(=O)[nH]1 [ウラシル] | 0.358 | 難溶 | わずかに溶け | –
2 | – | O=c1[nH]cc(F)c(=O)[nH]1 [5-FU, 5-fluorouracil] | – | – | – | 骨髄機能抑制などの重篤な副作用があり
